Biological target: Nanoluciferase-BRD9 fusion protein (Homo sapiens (Human), UniProt Q9H8M2)
Experiment: SYO1 BRD9 NanoLuc degradation assay
Assay type: cell-based
Conditions: Table 5A; SYO-1 cells expressing 3×FLAG-NLuc-BRD9, 6 hours; read-out: SYO1 BRD9-NanoLuc degradation IC50
In short: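 Degradation was read as loss of nanoluciferase signal (Nano-Glo) after 6 h compound exposure in a stable SYO-1 line carrying 3×FLAG-NLuc-BRD9 (8000 cells/well). Normalised between DMSO (high) and a 1 μM known BRD9 degrader (low).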

Chain of Nanoluciferase-BRD9 fusion protein (Q9H8M2 whole entry, the tested form may be a part): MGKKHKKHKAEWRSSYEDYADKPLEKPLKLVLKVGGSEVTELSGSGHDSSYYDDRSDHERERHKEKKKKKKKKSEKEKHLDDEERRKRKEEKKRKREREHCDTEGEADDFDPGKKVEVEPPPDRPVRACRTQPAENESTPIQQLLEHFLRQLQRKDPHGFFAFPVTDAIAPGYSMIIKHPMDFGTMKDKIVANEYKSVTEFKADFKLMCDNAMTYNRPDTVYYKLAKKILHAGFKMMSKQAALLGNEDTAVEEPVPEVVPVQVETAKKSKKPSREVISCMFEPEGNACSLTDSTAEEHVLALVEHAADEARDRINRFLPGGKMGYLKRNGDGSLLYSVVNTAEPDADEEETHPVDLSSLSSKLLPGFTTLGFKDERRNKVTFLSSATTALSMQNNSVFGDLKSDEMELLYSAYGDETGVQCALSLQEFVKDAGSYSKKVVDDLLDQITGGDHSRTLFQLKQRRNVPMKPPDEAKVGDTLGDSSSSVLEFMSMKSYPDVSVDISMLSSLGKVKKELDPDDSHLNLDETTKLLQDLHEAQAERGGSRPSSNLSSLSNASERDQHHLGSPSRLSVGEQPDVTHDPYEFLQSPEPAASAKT

| DC50 [nM] | Structure (SMILES) |
| --- | --- |
| 10 to 100 | COc1cc(-c2cn(C)c(=O)c3cnccc23)cc(OC)c1CN1CC(CC(=O)NC2CC3(C2)CC(Oc2ccc4c(c2)C(=O)N(C2CCC(=O)NC2=O)C4=O)C3)C1 (stereo not shown) [Compound D78] |
| < 10 | COc1cc(-c2cn(C)c(=O)c3cnccc23)cc(OC)c1CN1CC(S(=O)(=O)NCCOCCNc2cccc3c2C(=O)N(C2CCC(=O)NC2=O)C3=O)C1 (stereo not shown) [Compound D45, 1-[[2,6-dimethoxy-4-(2-methyl-1-oxo-2,7-naphthyridin-4-yl)phenyl]methyl]-N-[2-(2-[[2-(2,6-dioxopiperidin-3-yl)-1,3-dioxoisoindol-4-yl]amino]ethoxy)ethyl]azetidine-3-sulfonamide] |
| < 10 | COc1cc(-c2cn(C)c(=O)c3cnccc23)cc(OC)c1CN1CC(CC(=O)N2CCC3(CC2)CN(c2ccc4c(c2)C(=O)N(C2CCC(=O)NC2=O)C4=O)C3)C1 (stereo not shown) [Compound D76] |
| 10 to 100 | COc1cc(-c2cn(C)c(=O)c3cnccc23)cc(OC)c1CN1CC(OCc2cn(CCOc3ccc4c(c3)C(=O)N(C3CCC(=O)NC3=O)C4=O)nn2)C1 (stereo not shown) [Compound D61, 5-(2-(4-(((1-(2,6-dimethoxy-4-(2-methyl-1-oxo-1,2-dihydro-2,7-naphthyridin-4-yl)benzyl)azetidin-3-yl)oxy)methyl)-1H-1,2,3-triazol-1-yl)ethoxy)-2-(2,6-dioxopiperidin-3-yl)isoindoline-1,3-dione] |
| 100 to 1000 | COc1cc(-c2cn(C)c(=O)c3cnccc23)cc(OC)c1CN1CC(CCNC(=O)CCOCCOc2cccc3c2C(=O)N(C2CCC(=O)NC2=O)C3=O)C1 (stereo not shown) [Compound D83] |
| 10 to 100 | COc1cc(-c2cn(C)c(=O)c3cnccc23)cc(OC)c1CN1CC(C(=O)N(C)Cc2cccc3c2C(=O)N(C2CCC(=O)NC2=O)C3=O)C1 (stereo not shown) [Compound D29, 1-(2,6-dimethoxy-4-(2-methyl-1-oxo-1,2-dihydro-2,7-naphthyridin-4-yl)benzyl)-N-((2-(2,6-dioxopiperidin-3-yl)-1,3-dioxoisoindolin-4-yl)methyl)-N-methylazetidine-3-carboxamide] |

Same assay, conditions: Table 5B; SYO-1 cells expressing 3×FLAG-NLuc-BRD9, 6 hours; read-out: SYO1 BRD9-NanoLuc degradation IC50

| Structure (SMILES) | DC50 [nM] |
| --- | --- |
| COc1cc(-c2cn(C)c(=O)c3cnccc23)cc(OC)c1CN(C)CCCCN1CCCC2(CC(Oc3ccc4c(c3)C(=O)N([C@@H]3CCC(=O)NC3=O)C4=O)C2)C1 (stereo partly shown) [Compound D244] | < 10 |
| COc1cc(-c2cn(C)c(=O)c3cnccc23)cc(OC)c1Cn1cc(COC2CCN(c3ccc4c(c3)C(=O)N(C3CCC(=O)NC3=O)C4=O)CC2)nn1 (stereo not shown) [Compound D272] | < 10 |
| COc1cc(-c2cn(C)c(=O)c3cnccc23)cc(OC)c1CN1CC(CC(=O)N2CC3(CCN(c4ccc5c(c4)C(=O)N(C4CCC(=O)NC4=O)C5=O)CC3)C2)C1 (stereo not shown) [Compound D190] | 10 to 100 |
| COc1cc(-c2cn(C)c(=O)c3cnccc23)cc(OC)c1CN1CCC(c2nc(COc3ccc4c(c3)C(=O)N(C3CCC(=O)NC3=O)C4=O)cs2)CC1 (stereo not shown) [Compound D321] | < 10 |
| COc1cc(-c2cn(C)c(=O)c3cnccc23)cc(OC)c1CN(C)CCCCN1CCC2(CC1)CN(c1ccc3c(c1)C(=O)N(C1CCC(=O)NC1=O)C3=O)C2 (stereo not shown) [Compound D222] | < 10 |
| COc1cc(-c2cn(C)c(=O)c3cnccc23)cc(OC)c1CN1CCC(c2ncc(COc3ccc4c(c3)C(=O)N(C3CCC(=O)NC3=O)C4=O)o2)CC1 (stereo not shown) [Compound D326] | < 10 |
| COc1cc(-c2cc(C)c(=O)n(C)c2)cc(OC)c1CN1CCC2(CC1)CC(Oc1ccc3c(c1)C(=O)N(C1CCC(=O)NC1=O)C3=O)C2 (stereo not shown) [Compound D332] | < 10 |
| COc1cc(-c2cn(C)c(=O)c3cnccc23)cc(OC)c1CN1CCN(C(=O)C#Cc2ccc3c(c2)C(=O)N(C2CCC(=O)NC2=O)C3=O)CC1 (stereo not shown) [Compound D216] | < 10 |
| COc1cc(-c2cc(C(F)F)c(=O)n(C)c2)cc(OC)c1CN1CCC2(CC1)CN(c1ccc3c(c1)C(=O)N(C1CCC(=O)NC1=O)C3=O)C2 (stereo not shown) [Compound D341] | < 10 |
| COc1cc(-c2cn(C)c(=O)c3cnccc23)cc(OC)c1CN1CC(CC(=O)N2CCCC3(CC(Oc4ccc5c(c4)C(=O)N([C@@H]4CCC(=O)NC4=O)C5=O)C3)C2)C1 (stereo partly shown) [Compound D264] | 10 to 100 |
| COc1cc(-c2cn(C)c(=O)c3cnccc23)cc(OC)c1CN(C)C(=O)CCCCN1CC2(CC(Oc3ccc4c(c3)C(=O)N(C3CCC(=O)NC3=O)C4=O)C2)C1 (stereo not shown) [Compound D230] | < 10 |
| COc1cc(-c2cn(C)c(=O)c3cnccc23)cc(OC)c1CN1CCC2(CC1)CCN(CC#Cc1ccc3c(c1)C(=O)N(C1CCC(=O)NC1=O)C3=O)C2 (stereo not shown) [Compound D308] | < 10 |
| COc1cc(-c2cn(C)c(=O)c3cnccc23)cc(OC)c1CN1CC(CC(=O)N[C@@H]2C[C@]23CCN(c2ccc4c(c2)C(=O)N(C2CCC(=O)NC2=O)C4=O)C3)C1 (stereo partly shown) [Compound D231] | 100 to 1000 |
| COc1cc(-c2cn(C)c(=O)c3cnccc23)cc(OC)c1CN1CC(S(=O)(=O)NCCN2CCN(c3ccc4c(c3)C(=O)N(C3CCC(=O)NC3=O)C4=O)CC2)C1 (stereo not shown) [Compound D179] | 10 to 100 |
| COc1cc(-c2cn(C)c(=O)c3cnccc23)cc(OC)c1CN(C)C(=O)CCCCNC1CC2(C1)CC(Oc1ccc3c(c1)C(=O)N(C1CCC(=O)NC1=O)C3=O)C2 (stereo not shown) [Compound D260] | < 10 |
| COc1cc(-c2cn(C)c(=O)c3cnccc23)cc(OC)c1Cn1cc(CN2CC(Oc3ccc4c(c3)C(=O)N(C3CCC(=O)NC3=O)C4=O)C2)nn1 (stereo not shown) [Compound D270] | 10 to 100 |
| COc1cc(-c2cn(C)c(=O)c3[nH]ccc23)cc(OC)c1CN1CCC2(CC1)CN(c1ccc3c(c1)C(=O)N(C1CCC(=O)NC1=O)C3=O)C2 (stereo not shown) [Compound D340] | < 10 |
| COc1cc(-c2cn(C)c(=O)c3cnccc23)cc(OC)c1CN(C)CCCn1cc(COCCOc2ccc3c(c2)C(=O)N(C2CCC(=O)NC2=O)C3=O)nn1 (stereo not shown) [Compound D284] | 10 to 100 |
| COc1cc(-c2cn(C)c(=O)c3cnccc23)cc(OC)c1CN1CCC2C(C1)CN2C(=O)C#Cc1ccc2c(c1)C(=O)N(C1CCC(=O)NC1=O)C2=O (stereo not shown) [Compound D242] | < 10 |
| COc1cc(-c2cn(C)c(=O)c3cnccc23)cc(OC)c1CN(C)C(=O)CCCCN1CCC2(CC1)CN(c1ccc3c(c1)C(=O)N(C1CCC(=O)NC1=O)C3=O)C2 (stereo not shown) [Compound D186] | < 10 |
| COc1cc(-c2cn(C)c(=O)c3cnccc23)cc(OC)c1CN(C)CCCCN1CCC2(CCN(c3ccc4c(c3)C(=O)N(C3CCC(=O)NC3=O)C4=O)C2)C1 (stereo not shown) [Compound D225] | < 10 |
| COc1cc(-c2cc(C)c(=O)n(C)c2)cc(OC)c1CN1CC(C#Cc2ccc3c(c2)C(=O)N(C2CCC(=O)NC2=O)C3=O)C1 (stereo not shown) [Compound D335] | < 10 |
| COc1cc(-c2cn(C)c(=O)c3cnccc23)cc(OC)c1CN1CCC(n2cc(COC3CCN(c4ccc5c(c4)C(=O)N(C4CCC(=O)NC4=O)C5=O)CC3)nn2)CC1 (stereo not shown) [Compound D281] | 10 to 100 |
| COc1cc(-c2cn(C)c(=O)c3cnccc23)cc(OC)c1CN1CCC2(C1)CN(C(=O)CCC#Cc1ccc3c(c1)C(=O)N(C1CCC(=O)NC1=O)C3=O)C2 (stereo not shown) [Compound D269] | < 10 |

Further lines, results first:

| DC50 [nM] | Structure (SMILES) |
| --- | --- |
| < 10 | COc1cc(-c2ccc(=O)n(C)c2)cc(OC)c1CN1CCN(c2ccc3c(c2)C(=O)N(C2CCC(=O)NC2=O)C3=O)CC1 (stereo not shown) [Compound D344] |
| < 10 | COc1cc(-c2ccc(=O)n(C)c2)cc(OC)c1CN1CC(CN2CCC3(CC2)CN(c2ccc4c(c2)C(=O)N(C2CCC(=O)NC2=O)C4=O)C3)C1 (stereo not shown) [Compound D347] |
| 10 to 100 | COc1cc(-c2cn(C)c(=O)n3ccnc23)cc(OC)c1CN1CC(CN2CCC3(CC2)CN(c2ccc4c(c2)C(=O)N(C2CCC(=O)NC2=O)C4)C3)C1 (stereo not shown) [Compound D365] |
| 100 to 1000 | CNC(=O)NCc1cc(-c2cc(OC)c(CN3CC(CN4CCC5(CC4)CN(c4ccc6c(c4)C(=O)N(C4CCC(=O)NC4=O)C6)C5)C3)c(OC)c2)cn(C)c1=O (stereo not shown) [Compound D364] |
| < 10 | COc1cc(-c2cn(C)c(=O)c3cnccc23)cc(OC)c1CN(C)CCCCCCCCNc1cccc2c1CN(C1CCC(=O)NC1=O)C2=O (stereo not shown) [DD4] |
| < 10 | COc1cc(-c2cc(C)c(=O)n(C)n2)cc(OC)c1CN1CCC2(CC1)CN(c1ccc3c(c1)CN(C1CCC(=O)NC1=O)C3=O)C2 (stereo not shown) [Compound D357] |
| < 10 | COc1cc(-c2cn(C)c(=O)c3ccccc23)cc(OC)c1CN1CC(CN2CCC3(CC2)CN(c2ccc4c(c2)CN(C2CCC(=O)NC2=O)C4=O)C3)C1 (stereo not shown) [Compound D360] |
| < 10 | COc1cc(-c2cn(C)c(=O)c3cnncc23)cc(OC)c1CN1CCC(CN2CCC3(CC2)CC(Oc2ccc4c(c2)CN(C2CCC(=O)NC2=O)C4=O)C3)CC1 (stereo not shown) [Compound D367] |

Same assay, conditions: Table 5C; SYO-1 cells expressing 3×FLAG-NLuc-BRD9, 6 hours; read-out: SYO1 BRD9-NanoLuc degradation IC50

| DC50 [nM] | Structure (SMILES) |
| --- | --- |
| < 10 | COc1cc(-c2cn(C)c(=O)c3cnccc23)cc(OC)c1CN1CC(Oc2ccc3c(c2)C(=O)N(C2CCC(=O)N(COC(=O)[C@@H](N)C(C)C)C2=O)C3=O)C1 (stereo partly shown) [Compound D381] |
| < 10 | COc1cc(-c2cn(C)c(=O)c3[nH]ncc23)cc(OC)c1CN1CCC2(CC1)CN(c1ccc3c(c1)C(=O)N(C1CCC(=O)NC1=O)C3)C2 (stereo not shown) [Compound D433] |
| < 10 | CCc1cc(-c2cn(C)c(=O)c3cnccc23)cc(OC)c1CN1CC(Oc2ccc3c(c2)C(=O)N(C2CCC(=O)NC2=O)C3=O)C1 (stereo not shown) [Compound D385] |
| < 10 | CCCn1cc(-c2cc(OC)c(CN3CCC4(C3)CN(c3ccc5c(c3)C(=O)N(C3CCC(=O)NC3=O)C5)C4)c(OC)c2)cc(C(F)F)c1=O (stereo not shown) [Compound D401] |
| < 10 | COc1cc(-c2cn(C)c(=O)c3cnccc23)cc(OC)c1CN1CCC2(CC1)CN(c1ccc3c(c1)C(=O)N(C1CCC(=O)NC1=O)C3)C2 (stereo not shown) [Compound D377] |
| < 10 | COc1cc(-c2cc(C(F)F)c(=O)n(C)c2)cc(OC)c1C1CN(c2ccc3c(c2)C(=O)N(C2CCC(=O)NC2=O)C3)C1 (stereo not shown) [Compound D455] |
| > 1000 | COc1cc(-c2cn(C)c(=O)cn2)cc(OC)c1CN1CCC2(CC1)CN(c1ccc3c(c1)C(=O)N(C1CCC(=O)NC1=O)C3)C2 (stereo not shown) [Compound D429] |
| < 10 | COc1cc(-c2cn(C)c(=O)c3cn(C)nc23)cc(OC)c1CN1CCC2(CC1)CN(c1ccc3c(c1)C(=O)N(C1CCC(=O)NC1=O)C3)C2 (stereo not shown) [Compound D416] |
